This is an account of results in US20220175856A1, “UNRAVELING RECEPTOR-METABOLITE INTERACTIONS IN THE HUMAN MICROBIOME” (The Rockefeller University, priority 2019, published 2022).

Entries after “also recorded” stand apart in the source; their conditions may differ. Where two headings read alike, the source gives them in different places.

Experiment [1] concerns the target T1, urotensin 2 receptor (UTR2) (Homo sapiens, UniProt Q9UKP6).
T1 sequence (Q9UKP6 1-389): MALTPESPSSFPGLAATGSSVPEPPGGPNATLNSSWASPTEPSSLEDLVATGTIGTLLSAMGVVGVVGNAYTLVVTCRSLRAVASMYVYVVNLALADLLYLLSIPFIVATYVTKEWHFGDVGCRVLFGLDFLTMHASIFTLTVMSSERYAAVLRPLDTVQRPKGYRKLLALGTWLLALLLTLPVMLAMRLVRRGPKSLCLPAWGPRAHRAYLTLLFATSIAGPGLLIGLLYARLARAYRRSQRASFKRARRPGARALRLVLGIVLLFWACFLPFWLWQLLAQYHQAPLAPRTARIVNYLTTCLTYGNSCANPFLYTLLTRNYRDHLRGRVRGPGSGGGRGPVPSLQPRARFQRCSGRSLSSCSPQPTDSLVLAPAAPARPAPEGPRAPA
The experiment can be described thus: β-arrestin recruitment GPCR agonist assay (PathHunter), UTR2. It counts as cell-based. To be noted: for agonist activity at UTR2: result in words.

The target in experiment [2] is T2, NMU1R (neuromedin receptor 1) (Homo sapiens, UniProt Q9HB89).
T2 sequence (Q9HB89 1-426): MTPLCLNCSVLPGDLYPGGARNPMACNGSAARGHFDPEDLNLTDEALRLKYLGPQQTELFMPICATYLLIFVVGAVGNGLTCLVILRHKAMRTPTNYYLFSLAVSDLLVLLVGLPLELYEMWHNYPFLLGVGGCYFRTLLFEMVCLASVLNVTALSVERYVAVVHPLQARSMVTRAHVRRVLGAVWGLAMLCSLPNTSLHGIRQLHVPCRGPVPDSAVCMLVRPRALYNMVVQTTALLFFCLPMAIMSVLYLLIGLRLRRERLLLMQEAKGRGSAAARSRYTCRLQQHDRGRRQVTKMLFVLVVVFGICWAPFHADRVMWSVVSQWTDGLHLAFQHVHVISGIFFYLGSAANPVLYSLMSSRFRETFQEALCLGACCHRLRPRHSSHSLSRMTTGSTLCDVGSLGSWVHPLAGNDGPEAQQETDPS
The experiment is described as follows: β-arrestin recruitment GPCR agonist assay (PathHunter), NMU1R. The class given is cell-based. The settings on record: for agonist activity at NMU1R: result in words. On the technique in general: Arrestin recruitment assays detect the binding of arrestin to an activated receptor.

A further experiment concerns the target HRH4 (Homo sapiens, UniProt Q9H3N8). The experiment is described as follows: β-arrestin recruitment GPCR agonist assay (PathHunter), HRH4. It counts as cell-based. The settings on record: result in words.
Experiment [3] has as its target brain angiogenesis factor 1 (BAI1) (Homo sapiens, UniProt O14514). The experiment can be described thus: β-arrestin recruitment GPCR agonist assay (PathHunter), BAI1. The class given is cell-based.
For another experiment, the target named is T3, GPR151 (Homo sapiens, UniProt Q8TDV0).
T3 sequence (Q8TDV0 1-419): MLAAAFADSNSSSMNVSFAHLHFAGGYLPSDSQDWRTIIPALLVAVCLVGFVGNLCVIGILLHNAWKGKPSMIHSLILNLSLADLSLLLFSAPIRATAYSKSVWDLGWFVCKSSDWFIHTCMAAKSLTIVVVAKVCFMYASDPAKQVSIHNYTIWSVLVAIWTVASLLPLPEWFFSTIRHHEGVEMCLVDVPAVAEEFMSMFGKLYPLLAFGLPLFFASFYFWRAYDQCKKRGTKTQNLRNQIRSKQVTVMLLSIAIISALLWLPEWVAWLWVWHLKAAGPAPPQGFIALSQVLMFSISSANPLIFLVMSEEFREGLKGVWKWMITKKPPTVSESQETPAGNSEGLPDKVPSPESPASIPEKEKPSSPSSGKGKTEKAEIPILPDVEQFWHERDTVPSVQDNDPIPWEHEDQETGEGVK
The experiment can be described thus: β-arrestin recruitment GPCR agonist assay (PathHunter), GPR151. The class given is cell-based. To be noted: Table 1, GPCR GPR151 (Q8TDV0).

In the next experiment the target is GPR109B (Homo sapiens, UniProt P49019). The experiment can be described thus: cell-based. The text has this:
(§1) Individual bacteria from the SIHUMI consortium were fermented under anaerobic conditions in 20 L culture vessels, along with a media control containing no bacteria (FIG. 1). After 10 days, the extracellular metabolites were extracted and the crude mixture was partitioned into metabolite-rich fractions using reversed phased flash chromatography. The pre-fractionation process simplifies each fraction, thereby improving the signal in the primary screen and facilitating the downstream isolation of bioactive compounds. The fraction library was screened for agonist activity against individual GPCRs using a luminescence-based β-arrestin recruitment assay.
(§2) Compound plates were shipped on dry ice to Eurofins DiscoverX and the gperMAX and orphanMAX panels were run on all 80 samples in singleton.

The subject of experiment [4] is histamine receptor (HRH) family. The experiment is described as follows: β-arrestin recruitment GPCR agonist assay (PathHunter), histamine receptor family. The settings on record: synthetic polyamines; result in words. The class given is cell-based, human.
The test system of experiment [5] is serotonin receptors (HTRs). The experiment can be described thus: β-arrestin recruitment GPCR agonist assay (PathHunter), serotonin receptors. The class given is cell-based, human. To be noted: result in words.
Another experiment deals with DRD2. The experiment is described as follows: β-arrestin recruitment GPCR agonist assay (PathHunter), DRD2. It counts as cell-based, human. To be noted: synthetic standard; result in words.
Excerpt: as §1, §2

A further experiment concerns the target DRD3 (Homo sapiens, UniProt P35462). The experiment is described as follows: β-arrestin recruitment GPCR agonist assay (PathHunter), DRD3. To be noted: synthetic standard; result in words. The class given is cell-based.
[6] abbreviates: Table 1, GPCR UTR2 (Q9UKP6), read-out: EC50 (μM), UTR2.

Sequence of brain angiogenesis factor 1 (BAI1) (O14514 31-1584): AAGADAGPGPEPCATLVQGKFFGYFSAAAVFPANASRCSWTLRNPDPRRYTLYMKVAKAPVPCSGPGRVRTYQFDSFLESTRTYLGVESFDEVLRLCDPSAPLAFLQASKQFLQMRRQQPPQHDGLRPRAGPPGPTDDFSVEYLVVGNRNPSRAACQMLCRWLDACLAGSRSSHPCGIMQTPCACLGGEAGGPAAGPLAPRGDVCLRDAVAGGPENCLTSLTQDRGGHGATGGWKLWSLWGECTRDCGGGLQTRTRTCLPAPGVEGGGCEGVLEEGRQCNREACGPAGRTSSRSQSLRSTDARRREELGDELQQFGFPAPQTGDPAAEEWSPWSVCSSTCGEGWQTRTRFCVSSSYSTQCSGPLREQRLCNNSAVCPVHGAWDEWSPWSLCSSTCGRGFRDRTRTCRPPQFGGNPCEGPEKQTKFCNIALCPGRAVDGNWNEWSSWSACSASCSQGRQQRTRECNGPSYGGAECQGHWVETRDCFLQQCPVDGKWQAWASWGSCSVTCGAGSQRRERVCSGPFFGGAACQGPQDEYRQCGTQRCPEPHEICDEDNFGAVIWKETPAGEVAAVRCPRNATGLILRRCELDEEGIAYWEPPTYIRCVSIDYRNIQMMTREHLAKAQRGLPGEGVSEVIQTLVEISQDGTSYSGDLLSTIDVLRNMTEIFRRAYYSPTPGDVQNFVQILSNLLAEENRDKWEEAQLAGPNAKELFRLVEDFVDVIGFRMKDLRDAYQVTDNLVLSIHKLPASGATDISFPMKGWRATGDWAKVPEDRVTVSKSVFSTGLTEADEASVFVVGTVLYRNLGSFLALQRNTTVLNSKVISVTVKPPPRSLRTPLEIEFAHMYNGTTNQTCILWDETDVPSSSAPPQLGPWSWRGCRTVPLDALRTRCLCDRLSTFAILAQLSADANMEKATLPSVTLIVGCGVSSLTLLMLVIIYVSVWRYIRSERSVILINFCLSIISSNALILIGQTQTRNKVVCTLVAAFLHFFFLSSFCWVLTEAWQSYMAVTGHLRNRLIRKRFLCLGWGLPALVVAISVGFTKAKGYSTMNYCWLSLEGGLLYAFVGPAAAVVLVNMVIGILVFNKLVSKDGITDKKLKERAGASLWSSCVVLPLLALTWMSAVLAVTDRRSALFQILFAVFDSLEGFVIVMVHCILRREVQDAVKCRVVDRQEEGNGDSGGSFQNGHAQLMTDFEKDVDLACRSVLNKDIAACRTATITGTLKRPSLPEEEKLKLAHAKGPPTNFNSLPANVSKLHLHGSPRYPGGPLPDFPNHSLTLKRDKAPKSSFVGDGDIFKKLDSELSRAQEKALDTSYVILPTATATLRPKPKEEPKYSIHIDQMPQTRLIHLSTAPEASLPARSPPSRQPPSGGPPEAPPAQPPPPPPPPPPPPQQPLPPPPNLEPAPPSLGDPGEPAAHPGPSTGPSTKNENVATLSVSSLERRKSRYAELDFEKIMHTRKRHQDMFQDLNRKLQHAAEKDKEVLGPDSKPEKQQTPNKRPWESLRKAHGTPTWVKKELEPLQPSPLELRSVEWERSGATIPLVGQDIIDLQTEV
Sequence of HRH4 (Q9H3N8 whole entry): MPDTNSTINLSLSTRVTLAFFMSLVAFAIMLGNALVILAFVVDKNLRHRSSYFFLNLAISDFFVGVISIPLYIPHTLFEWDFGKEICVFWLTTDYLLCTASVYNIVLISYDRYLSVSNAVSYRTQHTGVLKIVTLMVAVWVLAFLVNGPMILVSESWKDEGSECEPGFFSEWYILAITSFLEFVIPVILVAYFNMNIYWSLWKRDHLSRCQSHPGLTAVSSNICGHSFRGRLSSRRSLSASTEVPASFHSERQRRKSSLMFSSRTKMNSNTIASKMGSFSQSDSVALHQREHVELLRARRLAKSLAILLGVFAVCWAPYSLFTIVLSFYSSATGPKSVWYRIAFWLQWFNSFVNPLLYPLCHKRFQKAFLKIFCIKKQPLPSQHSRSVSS
Sequence of GPR109B (P49019 whole entry): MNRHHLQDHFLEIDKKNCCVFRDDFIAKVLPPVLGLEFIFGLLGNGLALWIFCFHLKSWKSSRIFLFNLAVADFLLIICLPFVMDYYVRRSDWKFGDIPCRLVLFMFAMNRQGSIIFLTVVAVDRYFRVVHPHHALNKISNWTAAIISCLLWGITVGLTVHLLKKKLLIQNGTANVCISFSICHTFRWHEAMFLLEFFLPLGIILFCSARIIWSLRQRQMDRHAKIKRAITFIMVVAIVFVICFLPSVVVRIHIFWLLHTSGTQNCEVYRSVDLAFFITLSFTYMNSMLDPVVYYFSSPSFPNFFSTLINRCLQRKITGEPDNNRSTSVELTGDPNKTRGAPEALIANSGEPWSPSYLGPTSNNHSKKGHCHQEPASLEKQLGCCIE
Sequence of DRD3 (P35462 whole entry): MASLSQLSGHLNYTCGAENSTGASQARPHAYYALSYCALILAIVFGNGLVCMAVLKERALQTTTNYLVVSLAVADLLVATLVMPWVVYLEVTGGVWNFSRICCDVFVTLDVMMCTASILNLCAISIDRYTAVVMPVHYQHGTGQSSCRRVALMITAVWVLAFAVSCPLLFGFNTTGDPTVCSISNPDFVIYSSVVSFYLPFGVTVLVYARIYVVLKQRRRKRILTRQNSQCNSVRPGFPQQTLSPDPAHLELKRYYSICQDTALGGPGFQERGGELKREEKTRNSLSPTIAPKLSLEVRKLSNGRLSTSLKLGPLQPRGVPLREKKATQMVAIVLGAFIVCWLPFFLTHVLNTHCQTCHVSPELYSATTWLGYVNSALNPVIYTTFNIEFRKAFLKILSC

With `CC(C)CCCCCCCCCCCC(=O)O` [iC15:0, reference compound], in [1], the “agonist activity at UTR2” value is given as “minimal agonist activity”. Moreover, the “agonist activity at NMU1R” value in [2] was “minimal agonist activity”. Consider `N=C(N)NCCCCN` [Agmatine, agmatine, reference compound], for which, on HRH4, the “agonism / activation of HRH4” value is reported as “selectively agonized HRH4 but to a lesser extent than cadaverine”.

With `CCCCCCC1CC1CCCCCCCC(=O)O` (stereo not drawn) [9,10-methylenehexadecanoic acid], the concentration giving a half-maximal response (EC50) (as a rule, the concentration that produces a half-maximal response) came to 52 µM in experiment [1] (setting [6]) and 3.2 µM in [3] (Table 1, GPCR BAI1 (O14514)). Also, the “agonism of BAI1” value in [3] (result in words) is reported as “agonized BAIL; also recorded: BAIl-active”.

In the case of `NCCCCN` [putrescine, reference compound], the “agonism / activation of HRH4” value at HRH4 is on record as “selectively agonized HRH4 but to a lesser extent than cadaverine”.

Consider `CCC(C)CCCCCCCCCCC(=O)O` (stereo not drawn) [12-methylmyristic acid, 12-methyltetradecanoic acid], for which the EC50 at GPR151 was 49 µM; in [1] (setting [6]), 49 µM; in [1] (synthetic and natural compound, read-out: EC50, agonism of UTR2 (converted)), 202 µM; in experiment [2] (Table 1, GPCR NMU1R (Q9HB89), read-out: EC50 (μM), NMU1R), 29 µM; in experiment [2] (synthetic and natural compound, read-out: EC50, agonism of NMU1R (converted)), 132 µM. Besides, the “agonist activity at NMU1R” value in experiment [2] was “NMU1R-active”.

Consider `O=C(O)C=Cc1ccc(O)cc1` [4-hydroxycinnamic acid], for which, on GPR109B, the response was half-maximal at 208 µM (EC50).

On GPR151, `CC(C)CCCCCCCCCCCC(=O)O` [13-methylmyristic acid, 13-methyltetradecanoic acid] returned an EC50 of 44 µM.

Turning to `CCC(C)CCCCCCCCCCCCC(=O)O` (stereo not drawn) [aiC17:0, reference compound], in [1], the “agonist activity at UTR2” value was “minimal agonist activity”. The “agonist activity at NMU1R” value in experiment [2] is listed as “minimal agonist activity”. Take `NCCCCNCCCN` [spermidine]: the “HRH activity across the entire receptor family” value in [4] was “no HRH activity across the entire receptor family”. As for `NCCc1c[nH]c2ccccc12` [tryptamine], the “agonism of serotonin receptors (HTRs)” value in experiment [5] is listed as “can modulate serotonin receptors”. Consider `NCCCCCN` [cadaverine], for which the “agonism / activation of HRH4” value at HRH4 was “major metabolite responsible for HRH4 activation; also recorded: HRH4 agonist”; at HRH4 (listed as Cadaverine), “HRH4 agonist”. On GPR151, `CCC(C)CCCCCCCCCCCCC(=O)O` (stereo not drawn) [14-methylpalmitic acid] yielded an EC50 of 40 µM. In the case of `NCCc1ccc(O)cc1` [tyramine], the “agonism of DRD2” value with DRD2 was “agonism of DRD2 and DRD3 was validated”. Also, on DRD3, the “agonism of DRD3” value was “agonism of DRD2 and DRD3 was validated”.
